Source: patent US20190255144A1, “SPECIFIC OLIGOPEPTIDES AS ANTI-ANGIOGENIC DRUGS” (NEURONAX, priority 2014, published 2019)

Tests used:
HBMEC cells = assay: ELISA Cell Death test for induction of the apoptosis on the HBMEC cells; type: cell-based, human; details: basal medium
Procedure: The apoptosis process is accompanied by the fragmentation of DNA and thus generates soluble nucleosomes (cytoplasmic histones associated with fragmented DNA), which can be metered by an immunoenzymatic method, ELISA Cell Death Plus (Enzyme-Linked ImmunoSorbent Assay) Kit (Roche Molecular Diagnostics, France) according to the recommendations of the supplier. The HBMEC cells were inoculated in a 24-well plate at the density of 5.10^3 cells/wells and allowed to stand for 24 hours. The cells are cultivated in a basal medium, i.e., in the absence of growth factors, which is changed before they are exposed to various treatments for 24 hours. They are then recovered and then centrifuged with 200 g for 5 minutes. The cells are then counted, and then adjusted to 3.10^4 cells/mL in PBS. A new centrifuging with 200 g is carried out for 10 minutes. The supernatant is removed, and the cell pellet is taken up in 200 μl of lysis buffer before incubation for 30 minutes at ambient temperature. After a new centrifuging for 10 minutes at 1,400 rpm, 20 μL of supernatant is distributed in wells coated with streptavidin and each condition is carried out in duplicate. 80 μL of the immunoreagent solution is added into each well. […] The reaction is then halted by adding 100 μL of ABTS stop solution, and the results are then analyzed using a 405-nm plaque reader. […]

U87-MG cells = assay: Proteome array of supernatants of U87-MG cells (proteins involved in angiogenesis); type: cell-based; details: for DPPIV/CD 26, proteome array / Endoglin/CD105, proteome array / Endothelin-1 (ET-1), proteome array / IGFBP-1, proteome array / IGFBP-3, proteome array / IL-8/CXCL8, proteome array / MCP-1/CCL2, proteome array / NRG1-β1/HRG1-β1, proteome array / Pentraxin 3 (PTX3)/TSG-14, proteome array / Serpin E1/Pal-1, proteome array / TIMP-1, proteome array / TIMP-4, proteome array / TSP-1, proteome array / VEGF, proteome array / uPA, proteome array: supernatant of U87-MG after treatment
Text: (§1) FIGS. 2A to 2C represent analysis results of soluble factors that occur in angiogenesis: • Supernatants of U87-MG cells were studied by proteome array (FIGS. 2A and 2B) for the research of proteins involved in angiogenesis, in the presence of sterile water, TSP-1 and the oligopeptide according to the invention. The secretions of VEGFA via the U87-MG in the medium after treatments with sterile water, TSP-1 and the oligopeptide according to the invention, were metered by ELISA from supernatants (FIG. 2C).

[1] = tested on: secretions of VEGFA via the U87-MG; assay: ELISA metering of VEGF in the supernatant of U87-MG; type: cell-based; details: for VEGF ELISA reading, Val1 / VEGF ELISA reading, Val2 / VEGF Mean / VEGF pg/mL1 / VEGF pg/mL2 / VEGF ELISA reading, Mean: supernatant of U87-MG (SN U87) after treatment; for VEGF ELISA reading, Mean: mean of Val1 and Val2
Text: as §1

“thrombospondin 1 [TSP, reference compound]” was tested, and the “Protection of HBMEC from apoptosis (in words)” value (HBMEC cells) was “this effect is not observed”, the “IL-8 secretion (in words)” value (U87-MG cells; medium of treated U87-MG cells) was “significant increase in IL-8” and the “DPPIV/CD 26, proteome array” value (U87-MG cells) was 0. The “Endoglin/CD105, proteome array” value (U87-MG cells) was 0.09236, the “Endothelin-1 (ET-1), proteome array” value (U87-MG cells) was 0.0994 and the “IGFBP-1, proteome array” value (U87-MG cells) was 1.724. For the same substance, the “IGFBP-3, proteome array” value (U87-MG cells) was 0.5713, the “IL-8/CXCL8, proteome array” value (U87-MG cells) was 2.901 and the “MCP-1/CCL2, proteome array” value (U87-MG cells) was 0.1534. The “NRG1-β1/HRG1-β1, proteome array” value (U87-MG cells) was 0, the “Pentraxin 3 (PTX3)/TSG-14, proteome array” value (U87-MG cells) was 0.7118 and the “Serpin E1/Pal-1, proteome array” value (U87-MG cells) was 0.855. For the same substance, the “TIMP-1, proteome array” value (U87-MG cells) was 4.593, the “TIMP-4, proteome array” value (U87-MG cells) was 2.041 and the “TSP-1, proteome array” value (U87-MG cells) was 0.08481. The “VEGF, proteome array” value (U87-MG cells) was 1.397, the “uPA, proteome array” value (U87-MG cells) was 1.489 and the “VEGF ELISA reading, Val1” value [1] was 0.5. For the same substance, the “VEGF ELISA reading, Val2” value [1] was 0.518, the “VEGF Mean” value [1] was 636.2 pg/mL and the “VEGF pg/mL1” value [1] was 621.2 pg/mL. The “VEGF pg/mL2” value [1] was 651.2 pg/mL and the “VEGF ELISA reading, Mean” value [1] was 0.509.
For “—W—S-G-W—S—S—C—S—R—S—C-G- (WSGWSSCSRSCG; Oligopeptide derived from SCO-Spondin) [NX]”, the “Protection of HBMEC from apoptosis (in words)” value (HBMEC cells) was “protects the HBMEC human endothelial cells from the apoptosis at a level similar to the VEGF”, the “MCP-1 secretion (in words)” value (U87-MG cells; medium of treated U87-MG cells) was “large increase in MCP-1” and the “DPPIV/CD 26, proteome array” value (U87-MG cells) was 0.08222. For the same substance, the “Endoglin/CD105, proteome array” value (U87-MG cells) was 0, the “Endothelin-1 (ET-1), proteome array” value (U87-MG cells) was 0.09418 and the “IGFBP-1, proteome array” value (U87-MG cells) was 1.165. For the same substance, the “IGFBP-3, proteome array” value (U87-MG cells) was 0.1856, the “IL-8/CXCL8, proteome array” value (U87-MG cells) was 1.698 and the “MCP-1/CCL2, proteome array” value (U87-MG cells) was 1.861. For the same substance, the “NRG1-β1/HRG1-β1, proteome array” value (U87-MG cells) was 0.1465, the “Pentraxin 3 (PTX3)/TSG-14, proteome array” value (U87-MG cells) was 0.6179 and the “Serpin E1/Pal-1, proteome array” value (U87-MG cells) was 0.8632. The “TIMP-1, proteome array” value (U87-MG cells) was 3.888, the “TIMP-4, proteome array” value (U87-MG cells) was 2.15 and the “TSP-1, proteome array” value (U87-MG cells) was 0.07983. For the same substance, the “VEGF, proteome array” value (U87-MG cells) was 1.021, the “uPA, proteome array” value (U87-MG cells) was 1.209 and the “VEGF-A in the supernatant of U87-MG (in words)” value [1] was “reduction in VEGF-A”. The “VEGF ELISA reading, Val1” value [1] was 0.333, the “VEGF ELISA reading, Val2” value [1] was 0.266 and the “VEGF Mean” value [1] was 287 pg/mL. For the same substance, the “VEGF pg/mL1” value [1] was 342.8 pg/mL, the “VEGF pg/mL2” value [1] was 231.2 pg/mL and the “VEGF ELISA reading, Mean” value [1] was 0.2995.
